In article PMC7926627, “Fine-Tuning the Biological Profile of Multitarget Mitochondriotropic Antioxidants for Neurodegenerative Diseases” (Antioxidants, 2021):

Assays:
[1] = biological target: T1, eeAChE (electric eel acetylcholinesterase) (Electrophorus electricus, UniProt O42275); experiment: eeAChE inhibition, Ellman's method; assay type: biochemical
T1 construct: Eel acetylcholinesterase (eeAChE, E.C. 3.1.1.7, from Electrophorus electricus); purchased Sigma Aldrich
Procedure: (§1) The eeAChE and eqBChE inhibitory activities of the compounds under study were determined following the Ellman’s method [32, 33]
(§2) Substrate solutions (ATCI or BCTI) were prepared in deionized water (conductivity ˂ 0.1 µS.cm-
(§3) Evaluation of eel acetylcholinesterase and equine butyrylcholinesterase inhibitory
(§4) The eeAChE and eqBChE inhibitory activities of the compounds under study were evaluated following the Ellman’s method [1, 2]. Briefly, a mixture containing sodium phosphate buffer, enzyme (final concentration: eeAChE 0.05 U/mL and eeBChE 0.05 U/mL), DTNB (final concentration: 400 µM) and the test compounds/reference inhibitors were preincubated for 5 minutes at 30 °C in a 96-well microplate (BRANDplates, pureGradeTM, BRAND GMBH, Wertheim, Germany). In control experiments, sodium phosphate buffer was used instead of the
(§5) ºC in a microplate reader (BioTek Synergy HT from BioTek Instruments, Winooski, VT, USA).
(§6) The rates of the substrate enzymatic hydrolysis were determined, normalized and plotted against the respective inhibitor concentration. IC50 values were obtained from the dose-response curves
(§7) and were expressed as mean ± standard deviation. IC50 values were determined in at least three
(§8) independent experiments, each performed at least in triplicates.

[2] = biological target: T2, eqBChE (equine butyrylcholinesterase) (Equus caballus, UniProt P81908); experiment: biochemical
T2 construct: butyrylcholinesterase (eqBuChE, E.C. 3.1.1.8, from equine serum); purchased Sigma Aldrich; host or cells: equine serum
Procedure: as §1, §2, §3, §4, §5, §6, §7, §8

hBChE = biological target: T3, hBChE (Homo sapiens, UniProt P06276, N45Q/N483Q/N509Q/N514Q); experiment: Recombinant hBChE inhibition, Ellman's buffer; assay type: biochemical
T3 construct: made in house
Procedure: Recombinant hAChE and hBChE were produced and purified as previously described. Test compounds were dissolved in methanol 100 % to prepare stock solutions at 40 mM and subsequently diluted in water to reach the desired concentrations. Recombinant hAChE and hBChE activities were measured in presence of appropriate compound concentrations by spectrophotometry at 412 nm and 25 °C in a 1 mL cuvette containing Ellman’s buffer (0.5 mM DTNB, 0.1% BSA, 0.1 M phosphate, pH 7.4). Measurements were performed at least in duplicate for each tested concentration and final methanol concentrations were kept below 5%.

[3] = Oxygen radical absorbance capacity (ORAC-FL) assay; settings: for ROO• radical scavenging: ORAC-FL; for ORAC-FL Index: relative Trolox equivalent ORAC value
[4] = test system: differentiated SH-SY5Y cells; experiment: Resazurin reduction assay (cytotoxicity); assay type: cell-based, human; settings: 24 h
Procedure: For cytotoxicity studies, differentiated SH-SY5Y cells were incubated with increasing concentrations of the test compounds (0.20–100 µM) for 24 h. Controls were treated with culture media containing 0.1% DMSO. Cell viability was estimated using two different methods: resazurin reduction assay and NR uptake assay. […]
days. The cultures were passaged once a week by trypsinization (0.25 % trypsin/1 mM EDTA).
To avoid phenotypic changes, the cells used for all experiments were taken between 19th and 28th passages. Cells were differentiated as described previously by Fernandes et al.. Briefly, SH-SY5Y cells were seeded onto 96-well plates at a density of 25,000 cells/cm2 in cell culture medium with trans-retinoic acid (RA) (final concentration of 10 µM) and incubated for 3 days at 37 °C in a humidified, 5% CO2−95% air atmosphere. The cell culture medium was then removed and replaced with medium supplemented with 12-O-tetradecanoylphorbol-13-acetate (TPA) (final concentration 80 nM), and cells were incubated for 3 days. Stock solutions of RA (10 mM) and TPA (80 µM) were prepared in DMSO.
1.5.3. Cytotoxicity assays
1.5.3.1. Resazurin reduction assay
Resazurin is a non-fluorescent, non-toxic water-soluble dye able to permeate through cell […]
highly fluorescent resorufin [8, 9]. Since the conversion of resazurin into resorufin occurs mostly in mitochondria, the amount of resorufin produced can be used as indicator of metabolic activity. The quantity of resorufin production is proportional to the number of viable cells in culture and can be quantified fluorometrically or colorimetrically.
Resazurin reduction assay was performed as previously described by Fernandes et al..
Briefly, after the 24 h incubation periods with the test compounds, the cell culture medium was removed and replaced with fresh culture medium with resazurin (10 μg/mL) prepared in cell culture medium. Differentiated SH-SY5Y cells were incubated for 2 h at 37 °C in a humidified 5% CO2−95% air atmosphere. Then, the fluorescence was read in a multiwell microplate reader (PowerWave XS from BioTek Instruments, Vermont, US), using an excitation wavelength of 540 nm and an emission wavelength of 590 nm. The results were expressed as the percentage of resazurin reduction relative to that of the control (non-treated) cells [resazurin reduction (% of […]
1.5.3.2. Neutral red uptake assay
The neutral red (NR) uptake assay is based on the ability of viable cells to incorporate the supravital dye NR and retain it inside the lysosomes. NR uptake assay was performed as previously described by Fernandes et al. Briefly, after the 24 h incubation periods with the test compounds, the cell culture medium was removed and NR solution ([…]) in fresh cell culture medium was added. Differentiated SH-SY5Y cells and Caco-2 cells were incubated for 2 h and 1 h, respectively, at 37 °C in a humidified, 5% CO2−95% air atmosphere. Then, the cell culture medium was removed and replaced by ethanol absolute/distilled water (1:1) with 5 % acetic acid to liberate the dye from the viable cells. The absorbance was measured at 540 nm in a […]

hMAO-B = biological target: T4, hMAO-B (Homo sapiens, UniProt P27338); experiment: biochemical; set-up: purchased Sigma Aldrich; host or cells: insect cells (BTI-TN-5B1-4), baculovirus
T4 sequence (P27338 1-520): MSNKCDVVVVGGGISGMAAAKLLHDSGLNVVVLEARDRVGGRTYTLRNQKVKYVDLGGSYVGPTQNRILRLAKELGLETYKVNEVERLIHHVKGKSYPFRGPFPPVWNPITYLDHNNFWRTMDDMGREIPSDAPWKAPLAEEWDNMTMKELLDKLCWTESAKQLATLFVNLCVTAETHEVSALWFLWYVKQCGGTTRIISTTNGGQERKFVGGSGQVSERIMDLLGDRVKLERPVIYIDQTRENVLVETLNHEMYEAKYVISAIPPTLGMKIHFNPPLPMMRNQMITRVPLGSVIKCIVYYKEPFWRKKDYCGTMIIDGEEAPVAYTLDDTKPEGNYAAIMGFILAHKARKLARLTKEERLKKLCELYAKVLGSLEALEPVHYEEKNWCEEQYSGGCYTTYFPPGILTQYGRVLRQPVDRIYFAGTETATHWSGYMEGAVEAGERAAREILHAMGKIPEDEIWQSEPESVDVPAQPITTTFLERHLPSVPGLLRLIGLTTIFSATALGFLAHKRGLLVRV
Procedure: The inhibitory activity of lipophilic TPP^+ cations on hMAO-A and hMAO-B was studied using an experimental protocol described elsewhere [29, 40]
Evaluation of human monoamine oxidase (hMAO) inhibitory activity The human monoamine oxidase (hMAO) inhibitory outline was assessed in microsomal MAO isoforms prepared from insect cells (BTI-TN-5B1-4) infected with recombinant baculovirus containing cDNA inserts for hMAO-A or hMAO-B an d by measuring the enzymatic conversion rates of kynuramine into 4-hydroxyquinoline. The appropriate amounts of hMAO-A and hMAO-B were adjusted to obtain, in our experimental conditions, the same maximum
All assays were performed in sodium phosphate buffer solution 50 mM pH 7.4.
The compounds under study and reference inhibitors were pre-incubated at 37 °C for 10
concentration: 2×Km) in 96-well microplates (BRANDplates, pureGradeTM, BRAND GMBH, Wertheim, Germany). Then, the reaction was started with the addition of hMAO-A or hMAO-B.
Initial velocities were determined spectrophotometrically in a microplate reader (BioTek Synergy HT from BioTek Instruments, Winooski, VT, USA) at 37 °C by measuring the formation of 4-
The initial velocities, obtained from the linear phase of product formation, were normalized and plotted against the respective inhibitor concentration. IC50 values were obtained from dose-response curves and were expressed as mean ± standard deviation. IC50 values were determined from at least three independent experiments, each performed in triplicate.

T1 sequence (O42275 24-633): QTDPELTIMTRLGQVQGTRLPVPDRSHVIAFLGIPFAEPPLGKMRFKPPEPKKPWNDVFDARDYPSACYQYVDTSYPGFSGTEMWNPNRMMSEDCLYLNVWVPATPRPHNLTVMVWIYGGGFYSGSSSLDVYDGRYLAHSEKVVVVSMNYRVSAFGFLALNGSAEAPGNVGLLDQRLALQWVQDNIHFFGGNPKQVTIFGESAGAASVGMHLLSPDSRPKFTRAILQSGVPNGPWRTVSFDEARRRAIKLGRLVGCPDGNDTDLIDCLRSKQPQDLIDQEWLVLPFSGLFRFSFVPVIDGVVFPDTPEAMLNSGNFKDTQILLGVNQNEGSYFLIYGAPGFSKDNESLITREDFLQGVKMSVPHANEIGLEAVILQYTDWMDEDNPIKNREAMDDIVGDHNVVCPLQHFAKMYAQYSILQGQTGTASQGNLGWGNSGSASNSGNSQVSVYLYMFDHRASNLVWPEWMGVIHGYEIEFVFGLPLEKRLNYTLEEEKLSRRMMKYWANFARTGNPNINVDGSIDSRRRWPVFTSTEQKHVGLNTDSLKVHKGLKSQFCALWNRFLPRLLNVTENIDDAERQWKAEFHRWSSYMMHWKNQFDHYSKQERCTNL
T3 sequence (P06276 29-557 N45Q/N483Q/N509Q/N514Q limits assumed): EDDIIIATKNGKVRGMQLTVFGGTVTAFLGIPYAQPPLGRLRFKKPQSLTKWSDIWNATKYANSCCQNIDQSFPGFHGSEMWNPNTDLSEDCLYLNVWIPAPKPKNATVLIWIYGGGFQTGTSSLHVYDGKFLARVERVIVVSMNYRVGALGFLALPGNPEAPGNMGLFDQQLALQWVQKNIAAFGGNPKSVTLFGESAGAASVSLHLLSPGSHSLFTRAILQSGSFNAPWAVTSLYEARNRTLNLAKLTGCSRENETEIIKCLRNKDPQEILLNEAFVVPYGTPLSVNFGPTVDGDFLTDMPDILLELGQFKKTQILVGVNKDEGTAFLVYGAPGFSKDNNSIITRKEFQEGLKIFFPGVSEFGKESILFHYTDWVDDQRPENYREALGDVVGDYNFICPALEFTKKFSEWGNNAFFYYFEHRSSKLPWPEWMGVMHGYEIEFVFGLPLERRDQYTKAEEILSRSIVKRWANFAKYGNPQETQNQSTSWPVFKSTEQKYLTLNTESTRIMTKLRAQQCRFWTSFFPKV
T2 sequence (P81908 whole entry): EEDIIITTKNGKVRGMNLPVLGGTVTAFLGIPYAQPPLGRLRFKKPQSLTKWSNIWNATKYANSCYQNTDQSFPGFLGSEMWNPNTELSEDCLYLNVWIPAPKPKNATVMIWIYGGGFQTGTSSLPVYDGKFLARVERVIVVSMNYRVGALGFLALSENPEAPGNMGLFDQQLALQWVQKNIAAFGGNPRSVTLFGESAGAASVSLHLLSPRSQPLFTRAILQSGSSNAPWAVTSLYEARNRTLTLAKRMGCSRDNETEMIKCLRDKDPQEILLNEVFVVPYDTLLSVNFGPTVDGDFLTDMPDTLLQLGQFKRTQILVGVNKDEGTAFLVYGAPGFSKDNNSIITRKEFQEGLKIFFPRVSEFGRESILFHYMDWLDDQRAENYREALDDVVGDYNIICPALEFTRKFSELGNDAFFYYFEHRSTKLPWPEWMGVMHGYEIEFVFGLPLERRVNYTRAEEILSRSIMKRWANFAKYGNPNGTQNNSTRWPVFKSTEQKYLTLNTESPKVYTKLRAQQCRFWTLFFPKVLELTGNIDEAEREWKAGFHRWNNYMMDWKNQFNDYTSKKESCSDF

Structure (SMILES)	IC50 [1]	IC50 [2]	SI (1): eqBChE selectivity index = IC50(eeAChE)/IC50(eqBChE) [2]	IC50 (hBChE)	SI (2): hBChE selectivity index = IC50(hAChE)/IC50(hBChE) (hBChE)	ROO• radical scavenging [3]	concentrations in which the resazurin reduction was significantly decreased [4]	resorufin fluorescence (% of control) ([4]; at concentrations above 25 µM)	IC50 (hMAO-B)	SI (3): hMAO-B selectivity index = IC50 (hMAO-A)/IC50 (hMAO-B) (hMAO-B)	resorufin fluorescence (% of control) ([4]; at concentrations above 12.5 µM)	ORAC-FL Index [3]	effect on resazurin reduction ([4]; concentrations up to 100 µM)
O=C(/C=C/C=C/c1ccc2c(c1)OCO2)NCCCC[P+](c1ccccc1)(c1ccccc1)c1ccccc1.[Br-] [Compound 2, (4-((2E,4E)-5-(Benzo[d][1,3]dioxol-5-yl)penta-2,4-dienamido)butyl)triphenylphosphonium bromide]	6.39 ± 0.28 µM	0.0282 ± 0.0014 µM	226	0.2 ± 0.04 µM	55	unable to scavenge ROO• radicals	≥ 50 µM	< 85%	12.4 ± 1.9 µM	0.07			
O=C(/C=C/C=C/c1ccc2c(c1)OCO2)NCCCCCC[P+](c1ccccc1)(c1ccccc1)c1ccccc1.[Br-] [Compound 3, (6-((2E,4E)-5-(Benzo[d][1,3]dioxol-5-yl)penta-2,4-dienamido)hexyl)triphenylphosphonium bromide]	5.74 ± 0.32 µM	0.0179 ± 0.0009 µM	314	3 ± 0.4 µM	0.67	unable to scavenge ROO• radicals			4.64 ± 0.29 µM	0.26	< 85%		
O=C(/C=C/C=C/c1ccc(O)c(O)c1)NCCCC[P+](c1ccccc1)(c1ccccc1)c1ccccc1.[Br-] [Compound 4, (4-((2E,4E)-5-(3,4-Dihydroxyphenyl)penta-2,4-dienamido)butyl)triphenylphosphonium bromide]	2.23 ± 0.12 µM	0.0619 ± 0.0042 µM	36	3 ± 0.2 µM	7.3				13.5 ± 1.1 µM	0.38		3.3 ± 0.1	did not markedly affect
O=C(/C=C/C=C/c1ccc(O)c(O)c1)NCCCCCC[P+](c1ccccc1)(c1ccccc1)c1ccccc1.[Br-] [Compound 5, (6-((2E,4E)-5-(3,4-Dihydroxyphenyl)penta-2,4-dienamido)hexyl)triphenylphosphonium bromide]	2.14 ± 0.06 µM	0.0341 ± 0.0029 µM	62	23 ± 2 µM	0.39		≥ 50 µM	< 85%	10.9 ± 0.7 µM	0.20		3.1 ± 0.3	
